According to patent US4073938A, “19,20-Bis-nor-prostenoic acids as hypolipemic compounds” (Istituto Biochimico Italiano di Loredana Lorenzini S.a.s., priority 1974, dated 1978):
Where a name gives a salt, the structure may show the parent alone.

Test: Triglyceridemia and cholesterolemia in rats given alcohol 10%
Format: in vivo, Male Sprague-Dawley rats
Conditions: 1 week endoperitoneal once daily (CPIB, BBA 200 mg/kg; C83 50 mg/kg)
Procedure: | Treatment for 1 week CPIB - BBA - 200 mg/kg endoperitoneal; C83 | 50mg/kg endoperitoneal; only one daily administration. | Male Sprague-Dawley rats 150 gr. | Groups of 6 rats.

Compound `CCCCCCC1CCC(O)C1CCCCCCC(=O)O` (centres unmarked) [Compound C83, 9-hydroxy-19,20-bis-nor-prostanoic acid sodium salt] has a Cholesterolemia (controls 91.5 ± 6.6, alcohol 81.0 ± 4.6) of 56.3 ± 3.9 and a Triglyceridemia (controls 97.8 ± 5.1, alcohol 169.0 ± 25.0) of 85.2 ± 13.5.
